Measurements taken from PMC7309601 (Frontiers in Neuroscience, 2020).
“Also recorded” adds a separate entry of the source.

Columns and labels:
[1] = rat, in vivo; cited from earlier work
[2] = system: ACh outflow in the hippocampus; assay: Hippocampal microdialysis and quantification of ACh; type: in vivo, mice
Experimental: Mice were anesthetized with isoflurane, placed in a stereotaxic frame and bilaterally implanted with probes in both left and right hippocampi.
Concentrations of ACh in the microdialysis samples were analyzed by the Pronexus Analytical AB company (Stockholm, Sweden) using UHPLC tandem mass spectrometry (MS/MS). Briefly, the UHPLC-MS/MS system included a PAL autosampler (CTC Analytics, Zwingen, Switzerland), an Advance UHPLC pump, and an EVOQ Elite triple quadrupole mass spectrometer (Bruker Daltonics, Fremont, CA, United States) equipped with electrospray ionization source operating in a positive mode at +4,500 V. The source parameters were as follows: probe gas flow: 50, nebulizer gas flow: 60, probe temperature: +300°C, cone gas flow: 30, cone temperature: +200°C, CID gas: Ar 1.5 mTorr. A Titan PFP column (100 × 2.1 mm, 1.9 μm, 120 Å pore size) purchased from Sigma-Aldrich (Sweden) was used for UHPLC. Deuterated ACh (acetylcholine-1,1,2,2-d4 bromide; ACh-d4), used as internal standard, was purchased from C/D/N Isotopes (QMX Laboratories, Dunmow CM6 2PY, United Kingdom). Typically, 10 μL of aCSF or hippocampal microdialysate was mixed with 20 μL of ACh-d4 internal standard (50 nM, in aCSF), and 5 μL of the mixture was injected into the column. The mobile phase A was 0.1% (vol/vol) formic acid in water; the mobile phase B was acetonitrile with 0.1% formic acid. The linear elution gradient was as follows: 0–0.5 min: 5% B; 3.5 min: 55% B; 3.6 to 4.0 min: 70% B; 4.1 min, 5% B. The flow rate was 400 μL/min, and the total run-to-run time was 4.8 min. The calibration curve was linear in the range of 0.1 to 409.6 nM ACh (R^2 = 0.999); the estimated limit of detection was 0.05 nM, and the lower limit of quantification was 0.15 nM.
. 1 mg/kg, i.p.), or vehicle (NaCl 0.9%). Values are expressed as means ± SEM, n = 4–7 per group. Two-way ANOVA followed by Fisher least significant difference: *P < 0.05, **P < 0.01 vs Vehicle; […]. Acetylcholinesterase activity is expressed as percent of that determined in the absence of drugs. […]

[3] = target: T1, sigma-1 receptor (Homo sapiens, UniProt Q99720); assay: Eurofins CEREP sigma-1 receptor test; type: binding; conditions: MEF at a concentration as high as 1 μM; data not shown
T1 construct: Eurofins CEREP

[4] = in vivo; conditions: rat
Experimental: Drugs were administered p.o., once per day for 14 days.
Blood was collected on the 14th treatment day, just prior to drug administration (T0) and then 30 min, 1, 2, 4, 8, and 24 h later. Blood was collected by retro-orbital puncture except for the last collection, which was made by intracardiac puncture. After coagulation, blood samples were centrifuged at 3,000 × g for 15 min, and serum was collected and stored at −80°C. Rats were sacrificed by decapitation immediately after the last blood collection, and their brains including brainstem and cerebellum were removed as one piece, placed on tinfoil precooled on dry ice and stored at −80°C until drug quantifications.
One volume of brain or serum samples was added to three volumes of human serum EDTA K3, and the mixture was homogenized under magnetic stirring for 15 min for analysis using a Sciex API4000 Qtrap mass spectrometer coupled to a Shimadzu HPLC system (Shimadzu Corporation, Marne-la-Vallée, France).
(A,C) Blood samples were collected before treatment (T0) and then at 0.5, 1, 2, 4, 8, and 24 h after the last administration on day 14. (B,D) Brain samples were collected on day 15, 24 h after the last drug administration. […] No statistical analysis applicable (C,D). Bars in black indicate combination treatments.

[5] = system: Aβ25–35 peptide-injected mice; assay: Morris water maze in Aβ25–35-injected mice
Source text: Control groups received the vehicles only under the very same conditions (volume, time, route of administration) as tested drugs.
Both peptides Aβ25–35 and Sc.Aβ (scramble Aβ25–35) were purchased from PolyPeptides (Strasbourg, France).
Mice were placed in a circular pool with external cues in the room. […] Training consisted of three swims with 20-min intertrial time each day for 5 days, performed between days 11 and 15 after Aβ25–35 peptide or Sc.Aβ peptide i.c.v. injection. Random starting positions were selected each day, and each animal was allowed a 90-s swim to find the platform. Probe test was performed 24 h after the last swim (day 16 after peptide injection). The platform was removed, and each animal was allowed a free 60-s swim. The time spent in each quadrant was determined. Swimming was recorded using EthoVision software (Noldus).

[6] = system: scopolamine-treated mice; assay: Novel object recognition (NOR) task after scopolamine challenge; type: in vivo; conditions: scopolamine 0.5 mg/kg s.c.
Experimental: (§1) Both novel object recognition (NOR) and novel object location (NOL) tests were carried out in an open-field arena during three phases ([Leger et al., 2013]; [Vogel-Ciernia and Wood, 2014]; [Lueptow, 2017]). (i) For the habituation phase on the first day, mice were allowed to freely explore the empty apparatus. (ii) On the second day, two identical objects were placed at two opposite edges of the arena. Time spent by the mouse exploring the two objects was recorded. (iii) Twenty-four hours later, one of the two familiar objects was replaced by a novel one (NOR) or displaced (NOL). Mice were allowed to explore the whole arena during 10 min for each of the three phases. The preference index was calculated as the ratio of the duration of contacts with the novel/displaced object over the total duration of contacts with the two objects. Locomotion was recorded using EthoVision software (Noldus, Paris, France).

[7] = target: 5-HT1A; parameters: method as in Thompson et al., 2007; Janowsky et al., 2014; conditions: ref Thompson et al., 2007; Janowsky et al., 2014; cited from earlier work
[8] = target: 5-HT2C; parameters: method as in Thompson et al., 2007; Janowsky et al., 2014; conditions: ref Thompson et al., 2007; Janowsky et al., 2014; cited from earlier work
[9] = system: Aβ25–35 peptide-injected mice; assay: Novel object recognition (NOR) task in Aβ25–35-injected mice; type: in vivo
Experimental: as §1

[10] = target: noradrenaline transporters; parameters: method as in Janowsky et al., 2014; conditions: ref Janowsky et al., 2014; cited from earlier work
[11] = system: Cx-mediated astroglial cellular coupling; parameters: method as in Jeanson et al., 2016; conditions: same concentration range as reached under the treatment conditions; ref Jeanson et al., 2016; cited from earlier work
[12] = target: 5-HT3 receptors; parameters: method as in Thompson et al., 2007; Janowsky et al., 2014; conditions: ref Thompson et al., 2007; Janowsky et al., 2014; cited from earlier work
[13] = target: T2, mouse hippocampus AChE (Mus musculus, UniProt P21836); type: biochemical
T2 construct: from tissue; host or cells: mouse hippocampus homogenate, cleared supernatant
T2 sequence (P21836 32-614): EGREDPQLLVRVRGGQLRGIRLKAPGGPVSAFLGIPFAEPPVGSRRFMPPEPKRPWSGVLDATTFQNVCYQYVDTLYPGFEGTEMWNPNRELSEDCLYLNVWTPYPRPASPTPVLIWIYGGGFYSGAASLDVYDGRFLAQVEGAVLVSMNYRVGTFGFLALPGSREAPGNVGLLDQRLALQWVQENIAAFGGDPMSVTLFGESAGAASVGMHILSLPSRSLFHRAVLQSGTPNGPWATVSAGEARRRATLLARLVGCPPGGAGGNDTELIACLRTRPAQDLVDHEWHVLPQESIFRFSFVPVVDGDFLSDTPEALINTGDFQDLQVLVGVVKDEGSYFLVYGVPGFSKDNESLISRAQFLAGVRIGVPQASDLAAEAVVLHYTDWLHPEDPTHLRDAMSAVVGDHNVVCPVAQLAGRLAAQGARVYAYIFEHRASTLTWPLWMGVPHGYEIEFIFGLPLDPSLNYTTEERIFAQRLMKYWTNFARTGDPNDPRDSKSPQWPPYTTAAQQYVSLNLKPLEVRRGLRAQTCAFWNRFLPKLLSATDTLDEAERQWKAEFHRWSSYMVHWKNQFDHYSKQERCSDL
Experimental: Acetylcholinesterase activity was quantified using a cholinesterase activity assay kit according to manufacturer’s recommendations (MAK119; Sigma, St. Louis, MO, United States). Briefly, mouse hippocampus was homogenized (10 μL/mg) in 0.1 M Na/K phosphate buffer (PB) (pH 7.5) at 4°C followed by centrifugation at 30,000 × g for 5 min. […] Absorbance at 415 nm was quantified using VICTOR plate reader (Perkin–Elmer Inc., Waltham, Massachusetts, United States) at 2-min intervals from time 0 (tissue sample addition) up to 10 min. Acetylcholinesterase activity was expressed as units/L. One unit of AChE is the amount of enzyme that catalyzes the production of 1.0 μmol of thiocholine per minute at room temperature at pH 7.5.
Acetylcholinesterase activity is expressed as percent of that determined in the absence of drugs.

[14] = system: scopolamine-treated mice; assay: Y-maze spontaneous alternation task after scopolamine challenge; conditions: for Spontaneous alternation (Y-maze): effect on scopolamine-induced deficit: scopolamine 0.5 mg/kg s.c.
Experimental: Mefloquine (Sigma-Aldrich, L’Isle d’Abeau Chesnes, France) and DPZ (Sigma-Aldrich) were dissolved in 2% dimethyl sulfoxide (DMSO) and administered acutely either intraperitoneally (i.p.) (5 mL/kg) or by oral gavage (p.o.) (10 mL/kg). Scopolamine (Sigma-Aldrich) was administered subcutaneously (s.c.) (5 mL/kg) in saline solution (0.9% NaCl).
Mice were placed at the end of one arm of a Y-maze and allowed to move freely through the maze during an 8-min session. Spontaneous alternation was defined as entries into all three arms on consecutive occasions. […] The number of total arm entries during the 8-min session was used to quantify locomotor activity.

[15] = system: scopolamine-treated mice injected with sh-GFP, sh-Cx30 or sh-Cx43; assay: Novel object location (NOL) task in lentiviral vector-injected, scopolamine-treated mice; type: in vivo
[16] = system: astrocyte Cx expression; parameters: method as in Biswas et al., 2018; conditions: ref Biswas et al., 2018; cited from earlier work

T1 sequence (Q99720 whole entry, species assumed): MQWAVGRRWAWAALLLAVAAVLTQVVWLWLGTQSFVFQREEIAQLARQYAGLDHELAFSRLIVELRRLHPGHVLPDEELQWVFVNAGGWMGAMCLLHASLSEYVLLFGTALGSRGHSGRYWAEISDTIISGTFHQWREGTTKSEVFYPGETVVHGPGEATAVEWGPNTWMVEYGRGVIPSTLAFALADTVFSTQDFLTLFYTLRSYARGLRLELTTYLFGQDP

**Q.** With `OC(c1cc(C(F)(F)F)nc2c(C(F)(F)F)cccc12)C1CCCCN1` (stereo not shown) [MEF, Mefloquine] as the molecule, how does the “Crossing of the blood–brain barrier” value [1] read?
**A.** The value was “able to cross the blood–brain barrier”.

**Q.** What about the “Hippocampal ACh outflow” value ([2]; MEF 1 mg/kg i.p. alone) of the same molecule?
**A.** The value was “did not significantly modify ACh outflow”.

**Q.** What about the “Interference with sigma-1 receptor” value [3] of the same molecule?
**A.** The value was “does not interfere with sigma-1 receptor”.

**Q.** What about the concentration at 24 h [4] of the same molecule?
**A.** Its concentration at 24 h is ~500 nM.

**Q.** And the “Morris water maze learning (swim latency): effect on Aβ-induced memory deficit” value ([5]; MEF 1 mg/kg p.o. daily)?
**A.** Its value is “showed no effect”.

**Q.** And the “NOR test session: effect on scopolamine-induced loss of novel object preference” value ([6]; MEF 1 mg/kg i.p.)?
**A.** The value was “Neither MEF1 i.p., nor DPZ0.25 i.p., prevented the scopolamine effect”.

**Q.** And the Ki [7]?
**A.** The Ki was > 1000 nM.

**Q.** And the Ki [8]?
**A.** Its Ki is > 1000 nM.

**Q.** What about the “NOR test phase: effect on Aβ-induced impairment (preference index)” value ([9]; MEF 1 mg/kg p.o. daily from day 1, Aβ25–35 i.c.v.) of the same molecule?
**A.** Its value is “did not reverse the Aβ-induced impairment”.

**Q.** And the Ki [10]?
**A.** The Ki was > 1000 nM.

**Q.** And the “Cx-mediated astroglial cellular coupling” value [11]?
**A.** The value was “efficiently reduces Cx-mediated astroglial cellular coupling”.

**Q.** What about the Ki [12] of the same molecule?
**A.** The Ki was > 1000 nM.

**Q.** And the “Effect of MEF on the potency of DPZ to inhibit AChE activity” value ([13]; MEF 0.5–4 μM added to DPZ, brain extracts)?
**A.** Its value is “did not modify the potency of DPZ to inhibit AChE activity; also recorded: failed to affect DPZ-induced inhibition of AChE activity”.

**Q.** And the “Effect of MEF on AChE activity” value ([13]; even at 10 times the concentration reached in the brain)?
**A.** Its value is “devoid of any effect on AChE activity”.

**Q.** What does the source list for `CN1[C@@H]2C[C@@H](OC(=O)[C@H](CO)c3ccccc3)C[C@H]1[C@@H]1O[C@@H]12` [scopolamine, Scopolamine]?
**A.** Spontaneous alternation (Y-maze): effect of scopolamine vs vehicle-treated mice ([14]; scopolamine 0.5 mg/kg s.c. 20 min before task): significantly impaired spontaneous alternation; NOR test session: effect of scopolamine on exploration of the novel object [6]: abolished the increase in exploration time of the novel object; NOL task: preference index for the displaced object ([15]; scopolamine 0.5 mg/kg s.c., all LV-injected mice): ~50%

**Q.** For “Aβ: Aβ25–35 peptide injected i.c.v. to induce Alzheimer’s disease–like memory deficits (GSNKGAIIGLM; Amyloid-beta protein 42; UniProt P05067 696-706, looked up, fragment)”, which “Morris water maze learning: effect of Aβ i.c.v. injection vs Sc.Aβ” value ([5]; 9 nmol Aβ25–35 i.c.v., learning days 3–5) is on record?
**A.** The value was “induced a significant memory deficit”.

**Q.** And the “NOR test phase: effect of Aβ administration on exploration of the novel object” value ([9]; 9 nmol Aβ25–35 i.c.v.)?
**A.** The value was “abolished the increase in exploration time of the novel object”.

**Q.** What does the source list for `COc1cc2c(cc1OC)C(=O)C(CC1CCN(Cc3ccccc3)CC1)C2` (stereo not shown) [DPZ, Donepezil]?
**A.** Spontaneous alternation (Y-maze): effect on scopolamine-induced deficit ([14]; DPZ 0.1 mg/kg i.p. 40 min before task): exerted no effect; Spontaneous alternation (Y-maze): effect on scopolamine-induced deficit ([14]; DPZ 0.25 mg/kg p.o. 40 min before task): did not reverse scopolamine-induced deficit; Spontaneous alternation (Y-maze): effect on scopolamine-induced deficit ([14]; DPZ 0.5 mg/kg i.p. 40 min before task): significantly reversed the scopolamine-induced deficit; Hippocampal ACh outflow ([2]; DPZ 0.25 mg/kg i.p. alone): did not significantly modify ACh outflow; Increase of hippocampal ACh levels ([2]; DPZ 1 mg/kg i.p., 20 min after injection): up to 2.5 fold; Morris water maze learning (swim latency): effect on Aβ-induced memory deficit ([5]; DPZ 0.25 mg/kg p.o. daily): showed no effect; Morris water maze probe test: time spent in target quadrant ([5]; DPZ 1 mg/kg p.o. daily, day 16): restored performance up to the level noted in Sc.Aβ-injected control mice; Morris water maze learning (swim latency): effect on Aβ-induced memory deficit ([5]; DPZ 1 mg/kg p.o. daily, learning days 2 to 5): significantly reversed the Aβ-induced memory deficits; NOR test session: effect on scopolamine-induced loss of novel object preference ([6]; DPZ 0.25 mg/kg i.p.): Neither MEF1 i.p., nor DPZ0.25 i.p., prevented the scopolamine effect; NOR test session: effect on scopolamine-induced loss of novel object preference ([6]; DPZ 1 mg/kg i.p.): restore exploration preference of the novel object; NOL task: effect on scopolamine-induced memory deficit ([15]; DPZ 0.25 mg/kg i.p., sh-Cx30 group): significantly reduced the scopolamine effect; NOL task: effect on scopolamine-induced memory deficit ([15]; DPZ 0.25 mg/kg i.p., sh-Cx43 group): significantly reduced the scopolamine effect; NOL task: effect on scopolamine-induced memory deficit ([15]; DPZ 0.25 mg/kg i.p., sh-GFP injected mice): unable to prevent the memory deficit caused by scopolamine; NOL task: effect on scopolamine-induced memory deficit ([15]; DPZ 1 mg/kg i.p., all groups (sh-GFP, sh-Cx30, sh-Cx43)): able to prevent NOL memory deficits induced by scopolamine; Astrocyte Cx expression levels [16]: not to significantly alter astrocyte Cx expression levels
